One assay addresses T1, Full length Human HDAC10 (Homo sapiens, UniProt Q969S8).
T1 sequence (Q969S8 1-669): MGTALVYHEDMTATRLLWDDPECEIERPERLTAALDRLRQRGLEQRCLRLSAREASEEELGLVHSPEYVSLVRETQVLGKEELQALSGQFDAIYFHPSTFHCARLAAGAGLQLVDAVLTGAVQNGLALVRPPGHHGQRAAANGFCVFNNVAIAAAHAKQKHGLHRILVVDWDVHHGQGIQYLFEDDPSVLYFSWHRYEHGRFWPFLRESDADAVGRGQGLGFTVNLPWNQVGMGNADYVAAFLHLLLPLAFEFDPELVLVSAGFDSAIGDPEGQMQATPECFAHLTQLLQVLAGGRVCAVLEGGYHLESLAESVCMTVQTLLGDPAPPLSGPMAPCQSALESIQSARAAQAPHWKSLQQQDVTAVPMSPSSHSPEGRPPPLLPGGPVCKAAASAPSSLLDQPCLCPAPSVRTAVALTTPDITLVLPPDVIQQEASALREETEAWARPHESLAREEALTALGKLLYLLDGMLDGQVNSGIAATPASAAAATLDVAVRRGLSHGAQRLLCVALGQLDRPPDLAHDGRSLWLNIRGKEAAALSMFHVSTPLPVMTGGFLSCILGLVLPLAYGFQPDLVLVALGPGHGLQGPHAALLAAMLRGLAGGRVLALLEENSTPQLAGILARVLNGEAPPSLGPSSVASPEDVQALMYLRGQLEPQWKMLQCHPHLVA

In the next assay the target is T2, Human HDAC7 aa 518-end (Homo sapiens, UniProt Q8WUI4).
T2 sequence (Q8WUI4 518-952 limits assumed): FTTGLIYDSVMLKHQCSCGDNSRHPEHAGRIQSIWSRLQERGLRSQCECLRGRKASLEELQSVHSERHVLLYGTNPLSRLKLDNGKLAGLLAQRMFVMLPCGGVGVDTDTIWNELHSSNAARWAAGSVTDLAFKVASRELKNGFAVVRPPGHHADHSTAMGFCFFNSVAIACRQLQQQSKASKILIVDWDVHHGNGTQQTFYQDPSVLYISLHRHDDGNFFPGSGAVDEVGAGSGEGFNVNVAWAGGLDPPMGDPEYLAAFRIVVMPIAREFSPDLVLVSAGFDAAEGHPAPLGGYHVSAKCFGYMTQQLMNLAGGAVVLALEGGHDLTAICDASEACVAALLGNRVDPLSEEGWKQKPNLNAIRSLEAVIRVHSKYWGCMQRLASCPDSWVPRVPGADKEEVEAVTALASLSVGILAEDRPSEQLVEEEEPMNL

In the next assay the target is T3, Full length Human HDAC6 (Homo sapiens, UniProt Q9UBN7).
T3 sequence (Q9UBN7 1-1215): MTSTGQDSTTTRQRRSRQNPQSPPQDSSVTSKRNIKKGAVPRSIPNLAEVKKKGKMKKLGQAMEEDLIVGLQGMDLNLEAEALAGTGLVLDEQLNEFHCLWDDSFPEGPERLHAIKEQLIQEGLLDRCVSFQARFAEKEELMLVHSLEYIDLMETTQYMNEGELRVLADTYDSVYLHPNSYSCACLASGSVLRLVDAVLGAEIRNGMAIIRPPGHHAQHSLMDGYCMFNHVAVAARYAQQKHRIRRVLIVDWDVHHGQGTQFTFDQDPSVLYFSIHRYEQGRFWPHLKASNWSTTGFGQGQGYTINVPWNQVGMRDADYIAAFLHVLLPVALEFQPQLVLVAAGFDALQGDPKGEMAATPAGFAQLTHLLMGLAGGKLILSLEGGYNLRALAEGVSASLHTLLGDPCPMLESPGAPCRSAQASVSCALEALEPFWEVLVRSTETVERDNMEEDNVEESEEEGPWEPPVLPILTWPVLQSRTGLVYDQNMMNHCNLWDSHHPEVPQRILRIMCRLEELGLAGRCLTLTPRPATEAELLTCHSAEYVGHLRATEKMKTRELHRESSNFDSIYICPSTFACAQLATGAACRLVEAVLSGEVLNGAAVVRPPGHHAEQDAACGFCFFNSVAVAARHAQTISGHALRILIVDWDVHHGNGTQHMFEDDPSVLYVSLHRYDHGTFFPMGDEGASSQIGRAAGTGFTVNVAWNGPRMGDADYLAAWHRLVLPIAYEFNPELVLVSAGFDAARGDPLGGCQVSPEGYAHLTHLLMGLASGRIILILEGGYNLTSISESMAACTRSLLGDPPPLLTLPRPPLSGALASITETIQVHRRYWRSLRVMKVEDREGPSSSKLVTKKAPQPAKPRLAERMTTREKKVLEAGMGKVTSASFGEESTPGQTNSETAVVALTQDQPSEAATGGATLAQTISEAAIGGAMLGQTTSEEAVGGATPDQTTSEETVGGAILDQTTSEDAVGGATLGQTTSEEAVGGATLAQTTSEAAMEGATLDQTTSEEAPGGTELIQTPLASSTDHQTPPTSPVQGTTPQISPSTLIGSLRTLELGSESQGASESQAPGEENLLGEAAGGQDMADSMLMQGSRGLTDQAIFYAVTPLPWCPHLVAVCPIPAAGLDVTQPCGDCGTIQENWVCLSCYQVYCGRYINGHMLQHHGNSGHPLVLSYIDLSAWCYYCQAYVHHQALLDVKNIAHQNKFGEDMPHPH

Assay [1] has as its target Full length Human HDAC3 co-expressed with Human NCOR2 (Homo sapiens, UniProt O15379).
The next assay concerns the target T4, Full length Human HDAC8 (Homo sapiens, UniProt Q9BY41).
T4 sequence (Q9BY41 1-377): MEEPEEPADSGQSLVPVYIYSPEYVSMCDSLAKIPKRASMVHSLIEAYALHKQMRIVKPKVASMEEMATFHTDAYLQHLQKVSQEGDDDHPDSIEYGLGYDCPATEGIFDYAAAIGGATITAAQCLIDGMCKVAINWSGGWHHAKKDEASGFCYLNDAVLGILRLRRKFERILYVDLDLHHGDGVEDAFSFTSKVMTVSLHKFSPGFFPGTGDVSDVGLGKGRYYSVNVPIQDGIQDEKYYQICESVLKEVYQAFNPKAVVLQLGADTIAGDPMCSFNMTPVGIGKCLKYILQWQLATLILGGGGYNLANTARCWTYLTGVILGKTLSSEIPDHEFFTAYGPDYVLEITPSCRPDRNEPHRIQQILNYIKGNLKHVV

For the next assay, the target named is Full length Human HDAC1 (Homo sapiens, UniProt Q13547).
Full length Human HDAC1, sequence (Q13547 whole entry): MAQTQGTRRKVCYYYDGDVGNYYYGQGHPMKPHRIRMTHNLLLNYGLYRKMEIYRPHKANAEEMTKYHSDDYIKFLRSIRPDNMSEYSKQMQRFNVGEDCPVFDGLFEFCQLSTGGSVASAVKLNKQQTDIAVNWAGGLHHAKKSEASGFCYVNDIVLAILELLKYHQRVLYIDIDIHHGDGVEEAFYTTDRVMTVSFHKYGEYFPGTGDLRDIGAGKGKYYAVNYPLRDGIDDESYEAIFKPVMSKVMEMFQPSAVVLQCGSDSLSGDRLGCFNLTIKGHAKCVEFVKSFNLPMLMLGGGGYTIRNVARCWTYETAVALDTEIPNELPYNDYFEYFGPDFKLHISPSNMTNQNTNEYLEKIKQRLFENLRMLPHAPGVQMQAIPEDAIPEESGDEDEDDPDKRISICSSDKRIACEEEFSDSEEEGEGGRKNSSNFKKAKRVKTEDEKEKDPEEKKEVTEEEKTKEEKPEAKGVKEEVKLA
Where [2] appears, read: read-out: In vitro enzymatic IC50, HDAC Paralog 6, Table 2.
The mark [3] stands for this setting: read-out: In vitro enzymatic IC50, HDAC Paralog 8, Table 2.

pIC50: −log10 of the molar value. Read-outs that look alike come from different tables or passages of the source. Some results are limits rather than exact numbers.

Full length Human HDAC3 co-expressed with Human NCOR2, sequence (O15379 whole entry): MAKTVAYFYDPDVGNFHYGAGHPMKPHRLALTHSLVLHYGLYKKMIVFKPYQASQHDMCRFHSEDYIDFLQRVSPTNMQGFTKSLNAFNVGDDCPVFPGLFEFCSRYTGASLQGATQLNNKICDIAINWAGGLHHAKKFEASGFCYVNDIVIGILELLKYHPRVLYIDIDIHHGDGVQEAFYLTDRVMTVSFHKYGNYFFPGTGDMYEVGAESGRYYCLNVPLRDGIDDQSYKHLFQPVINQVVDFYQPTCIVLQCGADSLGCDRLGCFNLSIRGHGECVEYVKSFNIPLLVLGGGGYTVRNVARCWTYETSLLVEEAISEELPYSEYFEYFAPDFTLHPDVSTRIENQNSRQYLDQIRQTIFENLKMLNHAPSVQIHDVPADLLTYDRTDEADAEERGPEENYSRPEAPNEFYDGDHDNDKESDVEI
Full length Human HDAC3 co-expressed with Human NCOR2, sequence (Q9Y618 395-489 partner limits assumed): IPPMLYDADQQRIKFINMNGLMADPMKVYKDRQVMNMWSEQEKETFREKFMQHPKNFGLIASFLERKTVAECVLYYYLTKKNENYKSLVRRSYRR

Turning to `O=C(NO)c1cc(F)c2c(c1)CCN(CC13CC4CC(CC(C4)C1)C3)C2` [compound 34], the pIC50 (usually the IC50 on a negative log10 scale, so that one unit is a factor of ten) on Full length Human HDAC10 was 4.00 to 5.00; against Human HDAC7 aa 518-end it was 4.00 to 5.00; against Full length Human HDAC6, 7.00 to 9.00; on Full length Human HDAC6 (setting [2]) it was 7.00 to 9.00; in assay [1], 5.00 to 6.00; against Full length Human HDAC8 it was 4.00 to 5.00. Moreover, the pIC50 on Full length Human HDAC8 (setting [3]) and against Full length Human HDAC1 was 4.00 to 5.00 in each case.

For the molecule `O=C(NO)c1ccc(CN2C[C@H]3CC[C@@H]2CO3)c(F)c1` (single isomer, unassigned) [compound 173], the pIC50 on Full length Human HDAC10 was 4.00 to 5.00; against Human HDAC7 aa 518-end, 5.00 to 6.00; on Full length Human HDAC6, 7.00 to 9.00; in assay [1], 5.00 to 6.00; against Full length Human HDAC8, 5.00 to 6.00; against Full length Human HDAC1, 4.00 to 5.00.

In the case of `O=C(NO)c1ccc(CN2CCC3(CCCCC3)C2)c(F)c1` [compound 75, 4-((2-Azaspiro[4.5]decan-2-yl)methyl)-3-fluoro-N-hydroxybenzamide], the pIC50 against Full length Human HDAC10 is 4.00 to 5.00; on Human HDAC7 aa 518-end, 5.00 to 6.00; on Full length Human HDAC6, 7.00 to 9.00; on Full length Human HDAC6 (setting [2]) it was 7.00 to 9.00; at Full length Human HDAC8, 5.00 to 6.00; on Full length Human HDAC8 (setting [3]), 5.00 to 6.00.

In the case of `O=C(NO)c1ccc(CN2CC3CCC(C2)O3)c(F)c1` [compound 53], the pIC50 against Full length Human HDAC10 was 5.00 to 6.00; on Human HDAC7 aa 518-end, 6.00 to 7.00; on Full length Human HDAC6, 7.00 to 9.00; at Full length Human HDAC6 (setting [2]) it was 7.00 to 9.00; in assay [1], 5.00 to 6.00; against Full length Human HDAC8 it was 6.00 to 7.00. Moreover, the pIC50 is 6.00 to 7.00 on Full length Human HDAC8 (setting [3]) and 5.00 to 6.00 on Full length Human HDAC1.

On to `O=C(NO)c1cc(F)c2c(c1)C[C@H]1CCCCN1C2` (single isomer, unassigned) [compound 94], for which the pIC50 on Full length Human HDAC10 is less than 4.00; against Human HDAC7 aa 518-end it was 5.00 to 6.00; against Full length Human HDAC6, 6.00 to 7.00; in assay [1], 4.00 to 5.00; against Full length Human HDAC8, 5.00 to 6.00; on Full length Human HDAC1, less than 4.00.

Consider `O=C(NO)c1cc(F)c2c(c1)CCN1CCC[C@@H]21` (single isomer, unassigned) [compound 79], for which the pIC50 at Full length Human HDAC10 was 4.00 to 5.00; against Human HDAC7 aa 518-end, 6.00 to 7.00; at Full length Human HDAC6 it was 7.00 to 9.00; in assay [1], 5.00 to 6.00; at Full length Human HDAC8, 5.00 to 6.00; against Full length Human HDAC1 it was 5.00 to 6.00.

For `O=C(NO)c1ccc(CN2CC3CCC2CO3)c(F)c1` (stereo not drawn) [compound 58], the pIC50 on Full length Human HDAC10 is 4.00 to 5.00; against Human HDAC7 aa 518-end, 5.00 to 6.00; at Full length Human HDAC6, 7.00 to 9.00; on Full length Human HDAC6 (setting [2]), 7.00 to 9.00; in assay [1] it was 5.00 to 6.00; on Full length Human HDAC8 it was 6.00 to 7.00. Also, the figures for the pIC50 on Full length Human HDAC8 (setting [3]) and against Full length Human HDAC1 were 6.00 to 7.00 and 4.00 to 5.00, respectively.

With `O=C(NO)c1ccc2c(c1)CN1CCCCN1C2` [compound 106, N-hydroxy-1,2,3,4,6,11-hexahydropyridazino[1,2-b]phthalazine-8-carboxamide], the pIC50 was less than 4.00 against Full length Human HDAC10; 4.00 to 5.00 on Human HDAC7 aa 518-end; 6.00 to 7.00 at Full length Human HDAC6; 6.00 to 7.00 at Full length Human HDAC6 (setting [2]); 5.00 to 6.00 in assay [1]; 5.00 to 6.00 against Full length Human HDAC8. Besides, the pIC50 is 5.00 to 6.00 on Full length Human HDAC8 (setting [3]) and 4.00 to 5.00 against Full length Human HDAC1.

Take `O=C(NO)c1cc(F)c2c(c1)CCN(Cc1ccccc1)C2` [compound 32]: the negative logarithm of the IC50 (pIC50) against Full length Human HDAC10 was 4.00 to 5.00; at Human HDAC7 aa 518-end, 5.00 to 6.00; against Full length Human HDAC6, 7.00 to 9.00; on Full length Human HDAC6 (setting [2]), 7.00 to 9.00; against Full length Human HDAC8 it was 5.00 to 6.00; at Full length Human HDAC8 (setting [3]), 5.00 to 6.00.

Consider `O=C(NO)c1cc(F)c2c(c1)C[C@@H]1CCCCN1C2` (single isomer, unassigned) [compound 93], for which the pIC50 is 4.00 to 5.00 at Full length Human HDAC10; 5.00 to 6.00 on Human HDAC7 aa 518-end; 7.00 to 9.00 against Full length Human HDAC6; 5.00 to 6.00 in assay [1]; 5.00 to 6.00 on Full length Human HDAC8; 4.00 to 5.00 against Full length Human HDAC1.

In the case of `O=C(NO)c1cc(F)c2c(c1)CCN(C1CC3(CCCCC3)C1)C2` [compound 16], the negative logarithm of the IC50 (pIC50) against Full length Human HDAC10 is 4.00 to 5.00; against Human HDAC7 aa 518-end, 4.00 to 5.00; at Full length Human HDAC6, 7.00 to 9.00; at Full length Human HDAC6 (setting [2]) it was 7.00 to 9.00; in assay [1], 4.00 to 5.00; against Full length Human HDAC8, 4.00 to 5.00. In addition, the pIC50 on Full length Human HDAC8 (setting [3]) and at Full length Human HDAC1 was 4.00 to 5.00 each time.

Turning to `O=C(NO)c1ccc(CN2C[C@@H]3CC[C@H]2CO3)c(F)c1` (single isomer, unassigned) [compound 172], the pIC50 on Full length Human HDAC10 was less than 4.00; on Human HDAC7 aa 518-end, 5.00 to 6.00; against Full length Human HDAC6 it was 7.00 to 9.00; on Full length Human HDAC6 (setting [2]), 7.00 to 9.00; in assay [1], 4.00 to 5.00; against Full length Human HDAC8, 5.00 to 6.00. For the same molecule, the pIC50 on Full length Human HDAC8 (setting [3]) is 5.00 to 6.00; at Full length Human HDAC1, less than 4.00.
